Results as given in patent US12404289B2 (Gilead Sciences, Inc., priority 2020, dated 2025).
Where two headings read alike, the source gives them in different places.

Test system: Respiratory syncytial virus (RSV) strain A2
Experiment: RSV antiviral assay (HEp-2, 96 well)
Assay type: cell-based
Settings: Table 3
[1] = human respiratory syncytial virus, HEp-2, 96 h, read-out: EC50 RSV HEP2 96, HEp-2 cells, RSV A2, MOI=4, 4 days, 96 well
[2] = read-out: EC50 RSV HEP2 96, HEp-2 cells, RSV A2, MOI=4, 4 days, 96 well

SMILES	EC50 [1] [nM]	EC50 [2] [nM]
COC(C)(C)CCOC(=O)[C@H](C)NP(=O)(OC[C@H]1O[C@@](C#N)(c2ccc3c(N)ncnn23)[C@H](OC(=O)C(C)C)[C@@H]1OC(=O)C(C)C)Oc1ccccc1 (stereo partly drawn) [Example 76, [(2R,3R,4R,5R)-5-(4-aminopyrrolo[2,1-f][1,2,4]triazin-7-yl)-5-cyano-2-[[[[(1S)-2-(3-methoxy-3-methyl-butoxy)-1-methyl-2-oxo-ethyl]amino]-phenoxy-phosphoryl]oxymethyl]-4-(2-methylpropanoyloxy)tetrahydrofuran-3-yl] 2-methylpropanoate]	29.2	
CCOC(=O)O[C@H]1[C@@H](OC(=O)OCC)[C@](C#N)(c2ccc3c(N)ncnn23)O[C@@H]1CO[P@@](=O)(N[C@@H](C)C(=O)OCC(CC)CC)Oc1ccccc1 [Example 127, 2-ethylbutyl ((S)-(((2R,3R,4R,5R)-5-(4-aminopyrrolo[2,1-f][1,2,4]triazin-7-yl)-5-cyano-3,4-bis((ethoxycarbonyl)oxy)tetrahydrofuran-2-yl)methoxy)(phenoxy)phosphoryl)-L-alaninate]	34.1	
CCC(CC)COC(=O)[C@H](C)NP(=O)(OC[C@H]1O[C@@](C#N)(c2ccc3c(N)ncnn23)[C@H](O)[C@@H]1O)Oc1cccc(C(C)(C)C)c1 (stereo partly drawn) [Example 68b]		34.4
CCC(C)(C)COC(=O)[C@H](C)NP(=O)(OC[C@H]1O[C@@](C#N)(c2ccc3c(N)ncnn23)[C@H](O)[C@@H]1O)Oc1ccccc1 (stereo partly drawn) [Intermediate D9, 2,2-dimethylbutyl ((((2R,3S,4R,5R)-5-(4-aminopyrrolo[2,1-f][1,2,4]triazin-7-yl)-5-cyano-3,4-dihydroxytetrahydrofuran-2-yl)methoxy)(phenoxy)phosphoryl)-L-alaninate]	65.4	
CC(C)C(=O)O[C@H]1[C@@H](OC(=O)C(C)C)[C@](C#N)(c2ccc3c(N)ncnn23)O[C@@H]1COP(=O)(N[C@@H](C)C(=O)OCCC(C)(C)C)Oc1ccccc1 (single isomer, unassigned) [Example 56a]		35.5
CCC(C)(C)CCOC(=O)[C@H](C)NP(=O)(OC[C@H]1O[C@@](C#N)(c2ccc3c(N)ncnn23)[C@H](O)[C@@H]1O)Oc1ccccc1 (stereo partly drawn) [Intermediate S4, 3,3-dimethylpentyl ((((2R,3S,4R,5R)-5-(4-aminopyrrolo[2,1-f][1,2,4]triazin-7-yl)-5-cyano-3,4-dihydroxytetrahydrofuran-2-yl)methoxy)(phenoxy)phosphoryl)-L-alaninate]	14.9	
CCCCCCOC(=O)[C@H](Cc1ccccc1)NP(=O)(OC[C@H]1O[C@@](C#N)(c2ccc3c(N)ncnn23)[C@H](O)[C@@H]1O)Oc1ccc(C(C)(C)C)cc1 (stereo partly drawn) [Example 119, hexyl ((((2R,3S,4R,5R)-5-(4-aminopyrrolo[2,1-f][1,2,4]triazin-7-yl)-5-cyano-3,4-dihydroxytetrahydrofuran-2-yl)methoxy)(4-(tert-butyl)phenoxy)phosphoryl)-L-phenylalaninate]	559	
C[C@H](NP(=O)(OC[C@H]1O[C@@](C#N)(c2ccc3c(N)ncnn23)[C@H](O)[C@@H]1O)Oc1ccc(C(C)(C)C)cc1)C(=O)O[C@H]1CC[C@H](C(F)(F)F)CC1 (single isomer, unassigned) [Example 84b]		186
CCC(CC)COC(=O)[C@H](C)NP(=O)(OC[C@H]1O[C@@](C#N)(c2ccc3c(N)ncnn23)[C@H](OC(=O)C(C)C)[C@@H]1OC(=O)C(C)C)Oc1ccc2ccccc2c1 (stereo partly drawn) [Example 69a, [(2R,3R,4R,5R)-5-(4-aminopyrrolo[2,1-f][1,2,4]triazin-7-yl)-5-cyano-2-[[[[(1S)-2-(2-ethylbutoxy)-1-methyl-2-oxo-ethyl]amino]-(2-naphthyloxy)phosphoryl]oxymethyl]-4-(2-methylpropanoyloxy)tetrahydrofuran-3-yl] 2-methylpropanoate]	22.1	
C[C@H](NP(=O)(OC[C@H]1O[C@@](C#N)(c2ccc3c(N)ncnn23)[C@H](O)[C@@H]1O)Oc1ccccc1)C(=O)OCCC(C)(C)C (stereo partly drawn) [Intermediate P8a, 3,3-dimethylbutyl ((((2R,3S,4R,5R)-5-(4-aminopyrrolo[2,1-f][1,2,4]triazin-7-yl)-5-cyano-3,4-dihydroxytetrahydrofuran-2-yl)methoxy)(phenoxy)phosphoryl)-L-alaninate]	20.3	
CCC(CC)COC(=O)[C@H](C)NP(=O)(OC[C@H]1O[C@@](C#N)(c2ccc3c(N)ncnn23)[C@H](OC(=O)C(C)C)[C@@H]1OC(=O)C(C)C)Oc1ccc2ccccc2c1 (stereo partly drawn) [Example 69b, [(2R,3R,4R,5R)-5-(4-aminopyrrolo[2,1-f][1,2,4]triazin-7-yl)-5-cyano-2-[[[[(1S)-2-(2-ethylbutoxy)-1-methyl-2-oxo-ethyl]amino]-(2-naphthyloxy)phosphoryl]oxymethyl]-4-(2-methylpropanoyloxy)tetrahydrofuran-3-yl] 2-methylpropanoate]		36.9
CCC(C)(C)CCOC(=O)[C@H](C)NP(=O)(OC[C@H]1O[C@@](C#N)(c2ccc3c(N)ncnn23)[C@H](OC(=O)C(C)C)[C@@H]1OC(=O)C(C)C)Oc1ccccc1 (stereo partly drawn) [Example 74, [(2R,3R,4R,5R)-5-(4-aminopyrrolo[2,1-f][1,2,4]triazin-7-yl)-5-cyano-2-[[[[(1S)-2-(3,3-dimethylpentoxy)-1-methyl-2-oxo-ethyl]amino]-phenoxy-phosphoryl]oxymethyl]-4-(2-methylpropanoyloxy)tetrahydrofuran-3-yl] 2-methylpropanoate]	131	
C[C@H](NP(=O)(OC[C@H]1O[C@@](C#N)(c2ccc3c(N)ncnn23)[C@H](O)[C@@H]1O)Oc1ccc(C(C)(C)C)cc1)C(=O)OC1CCCCCCC1 (stereo partly drawn) [Example 73, cyclooctyl (2S)-2-[[[(2R,3S,4R,5R)-5-(4-aminopyrrolo[2,1-f][1,2,4]triazin-7-yl)-5-cyano-3,4-dihydroxy-tetrahydrofuran-2-yl]methoxy-(4-tert-butylphenoxy)phosphoryl]amino]propanoate]	552	
COC(C)(C)COC(=O)[C@H](C)NP(=O)(OC[C@H]1O[C@@](C#N)(c2ccc3c(N)ncnn23)[C@H](O)[C@@H]1O)Oc1ccc(C(C)(C)C)cc1 (stereo partly drawn) [Example 111, 2-methoxy-2-methylpropyl ((((2R,3S,4R,5R)-5-(4-aminopyrrolo[2,1-f][1,2,4]triazin-7-yl)-5-cyano-3,4-dihydroxytetrahydrofuran-2-yl)methoxy)(4-(tert-butyl)phenoxy)phosphoryl)-L-alaninate]	846	
CC(C)C(=O)O[C@H]1[C@@H](OC(=O)C(C)C)[C@](C#N)(c2ccc3c(N)ncnn23)O[C@@H]1COP(=O)(N[C@@H](C)C(=O)OCCC(C)(C)C)Oc1ccc(C(C)(C)C)cc1 (stereo partly drawn) [Example 62, [(2R,3R,4R,5R)-5-(4-aminopyrrolo[2,1-f][1,2,4]triazin-7-yl)-2-[[(4-tert-butylphenoxy)-[[(1S)-2-(3,3-dimethylbutoxy)-1-methyl-2-oxo-ethyl]amino]phosphoryl]oxymethyl]-5-cyano-4-(2-methylpropanoyloxy)tetrahydrofuran-3-yl] 2-methylpropanoate]	70.6	
CC(C)C(=O)O[C@H]1[C@@H](OC(=O)C(C)C)[C@](C#N)(c2ccc3c(N)ncnn23)O[C@@H]1COP(=O)(N[C@@H](C)C(=O)OC1CCCCCCC1)Oc1ccc(C(C)(C)C)cc1 (single isomer, unassigned) [Example 77b]		198
C[C@H](NP(=O)(OC[C@H]1O[C@@](C#N)(c2ccc3c(N)ncnn23)[C@H](O)[C@@H]1O)Oc1cccc2ccccc12)C(=O)OC1CCC1 (single isomer, unassigned) [Intermediate P7a-1]		224
C[C@H](NP(=O)(OC[C@H]1O[C@@](C#N)(c2ccc3c(N)ncnn23)[C@H](O)[C@@H]1O)Oc1ccc(C2CC2)cc1)C(=O)OC1CCC1 (stereo partly drawn) [Example 51a, cyclobutyl (2S)-2-[[[(2R,3S,4R,5R)-5-(4-aminopyrrolo[2,1-f][1,2,4]triazin-7-yl)-5-cyano-3,4-dihydroxy-tetrahydrofuran-2-yl]methoxy-(cyclopropylphenoxy)phosphoryl]amino]propanoate]	66.1	
CCOC(=O)[C@H](C)NP(=O)(OC[C@H]1O[C@@](C#N)(c2ccc3c(N)ncnn23)[C@H](O)[C@@H]1O)Oc1ccc(C(C)C)cc1 (stereo partly drawn) [Example 63b]		98.6
CCC(CC)COC(=O)[C@H](C)NP(=O)(OC[C@H]1O[C@@](C#N)(c2ccc3c(N)ncnn23)[C@H](OC(=O)C(C)C)[C@@H]1OC(=O)C(C)C)Oc1cccc(C(C)(C)C)c1 (stereo partly drawn) [Example 91, [(2R,3R,4R,5R)-5-(4-aminopyrrolo[2,1-f][1,2,4]triazin-7-yl)-2-[[(3-tert-butylphenoxy)-[[(1S)-2-(2-ethylbutoxy)-1-methyl-2-oxo-ethyl]amino]phosphoryl]oxymethyl]-5-cyano-4-(2-methylpropanoyloxy)tetrahydrofuran-3-yl] 2-methylpropanoate]	194	
CCC(=O)O[C@H]1[C@@H](OC(=O)CC)[C@](C#N)(c2ccc3c(N)ncnn23)O[C@@H]1CO[P@@](=O)(N[C@@H](C)C(=O)OCC(C)(C)OC)Oc1ccccc1 [Example 169, (2R,3R,4R,5R)-2-(4-aminopyrrolo[2,1-f][1,2,4]triazin-7-yl)-2-cyano-5-((((S)—(((S)-1-(2-methoxy-2-methylpropoxy)-1-oxopropan-2-yl)amino)(phenoxy)phosphoryl)oxy)methyl)tetrahydrofuran-3,4-diyl Dipropionate]	62.9	
CCCCCCOC(=O)[C@H](C)NP(=O)(OC[C@H]1O[C@@](C#N)(c2ccc3c(N)ncnn23)[C@H](O)[C@@H]1O)Oc1ccc(C(C)(C)C)cc1 (stereo partly drawn) [Example 120, hexyl ((((2R,3S,4R,5R)-5-(4-aminopyrrolo[2,1-f][1,2,4]triazin-7-yl)-5-cyano-3,4-dihydroxytetrahydrofuran-2-yl)methoxy)(4-(tert-butyl)phenoxy)phosphoryl)-L-alaninate]	73.9	
CC(=O)O[C@H]1[C@@H](OC(C)=O)[C@](C#N)(c2ccc3c(N)ncnn23)O[C@@H]1COP(=O)(N[C@@H](C)C(=O)OC1CCC1)Oc1ccc(C2CC2)cc1 (single isomer, unassigned) [Example 53a]	38.1	
CCC(CC)COC(=O)[C@H](C)NP(=O)(OC[C@H]1O[C@@](C#N)(c2ccc3c(N)ncnn23)[C@H](O)[C@@H]1O)Oc1ccc2ccccc2c1 (single isomer, unassigned) [Intermediate S3-a]	28.2	
